Test results: PMC10584170, “Machine learning-based phenotypic imaging to characterise the targetable biology of Plasmodium falciparum male gametocytes for the development of transmission-blocking antimalarials” (PLOS Pathogens, 2023)
Like-named read-outs stand apart in the source and are kept apart here.

Tests used:
[1] = test system: P. falciparum male gametocytes; assay: P. falciparum Dual Gamete Formation Assay (PfDGFA), male readout (exflagellation); type: cell-based, Plasmodium falciparum NF54; details: for Selectivity Ratio M: HepG2 Tox50 versus male IC50; for inhibition at 2 µM / Average inhibition male (%) / % inhibition male (individual replicates) R1 / % inhibition male (individual replicates) R3 / % inhibition male (individual replicates) R4: 24h preincubation with gametocytes; for HitlevelM: number of replicates with >50% inhibition in the male readout
Procedure, shortened: (§1)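 Male and female gamete formation were quantified by microscopy image analysis following 24 h incubation of mature NF54 gametocytes with compound and activation at 28°C with xanthurenic acid.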

HepG2 cells = assay: HepG2 cytotoxicity counter-screen; details: for Tox50: cytotoxic activity against HepG2 cells; for Mean TOX: mean of the HepG2 TOX50 values
[2] = test system: P. falciparum female gametocytes; assay: P. falciparum Dual Gamete Formation Assay (PfDGFA), female readout (Pfs25-positive female gametes); type: cell-based, Plasmodium falciparum NF54; details: for Selectivity ratio F: HepG2 Tox50 versus female IC50; for inhibition at 2 µM / Average inhibition female (%) / % inhibition female (individual replicates) R1 / % inhibition female (individual replicates) R3 / % inhibition female (individual replicates) R4: 24h preincubation with gametocytes; for HitlevelF: number of replicates with >50% inhibition in the female readout
Procedure, shortened: as §1

[3] = Plasmodium falciparum, PfDGFA, 24 h incubation with gametocytes before induction, exflagellation readout, read-out: Male IC50
[4] = Plasmodium falciparum, PfDGFA, 24 h incubation with gametocytes before induction, female gamete readout, read-out: Female IC50
[5] = PfDGFA, 24 h incubation with gametocytes before induction, exflagellation readout, read-out: Male IC50
[6] = PfDGFA, 24 h incubation with gametocytes before induction, female gamete readout, read-out: Female IC50
[7] = PfDGFA at 2µM, average of replicates
[8] = this study, read-out: Pf DGFA IC50 MALE
[9] = Plasmodium falciparum, 2µM, average of replicates, read-out: Average inhibition male (%)
[10] = Plasmodium falciparum, 2µM, replicate R1, read-out: % inhibition male (individual replicates) R1
[11] = Plasmodium falciparum, 2µM, replicate R2, read-out: % inhibition male (individual replicates) R2
[12] = Plasmodium falciparum, 2µM, replicate R3, read-out: % inhibition male (individual replicates) R3
[13] = Plasmodium falciparum, 2µM, replicate R4, read-out: % inhibition male (individual replicates) R4
[14] = Plasmodium falciparum, 2µM, average of replicates, read-out: Average inhibition female (%)
[15] = Plasmodium falciparum, 2µM, replicate R1, read-out: % inhibition female (individual replicates) R1
[16] = Plasmodium falciparum, 2µM, replicate R2, read-out: % inhibition female (individual replicates) R2
[17] = Plasmodium falciparum, 2µM, replicate R3, read-out: % inhibition female (individual replicates) R3
[18] = Plasmodium falciparum, 2µM, replicate R4, read-out: % inhibition female (individual replicates) R4

Compound | Selectivity Ratio M [1] | Tox50 (HepG2 cells) [µM] | Selectivity ratio F [2] | Average inhibition male (%) ([1]; 2µM, average of replicates) | % inhibition male (individual replicates) R1 ([1]; 2µM, replicate R1) [%] | % inhibition male (individual replicates) R3 ([1]; 2µM, replicate R3) [%] | % inhibition male (individual replicates) R4 ([1]; 2µM, replicate R4) [%] | IC50 [1, 5] [nM] | Average inhibition female (%) ([2]; 2µM, average of replicates) | % inhibition female (individual replicates) R1 ([2]; 2µM, replicate R1) [%] | % inhibition female (individual replicates) R3 ([2]; 2µM, replicate R3) [%] | % inhibition female (individual replicates) R4 ([2]; 2µM, replicate R4) [%] | IC50 [2, 6] [nM] | other results
CCc1cc2c(Sc3nnc(N)s3)ncnc2s1 [TCMDC-123993] | 62.08 | 61 | 82.32 |  |  |  |  |  |  |  |  |  |  | inhibition at 2 µM ([1]; Plasmodium falciparum, PfDGFA at 2µM, average of replicates, read-out: Average inhibition male (%)): 88.1%; inhibition at 2 µM ([1]; Plasmodium falciparum, PfDGFA at 2µM, replicate R1, read-out: % inhibition male (individual replicates) R1): 91.2%; inhibition at 2 µM ([1]; Plasmodium falciparum, PfDGFA at 2µM, replicate R2, read-out: % inhibition male (individual replicates) R2): 88.6%; inhibition at 2 µM ([1]; Plasmodium falciparum, PfDGFA at 2µM, replicate R3, read-out: % inhibition male (individual replicates) R3): 87.9%; inhibition at 2 µM ([1]; Plasmodium falciparum, PfDGFA at 2µM, replicate R4, read-out: % inhibition male (individual replicates) R4): 84.9%; IC50 [1, 3]: 980 nM; HitlevelM ([1]; 2µM): 4; inhibition at 2 µM ([2]; Plasmodium falciparum, PfDGFA at 2µM, average of replicates, read-out: Average inhibition female (%)): 62.7%; inhibition at 2 µM ([2]; Plasmodium falciparum, PfDGFA at 2µM, replicate R1, read-out: % inhibition female (individual replicates) R1): 49.4%; inhibition at 2 µM ([2]; Plasmodium falciparum, PfDGFA at 2µM, replicate R2, read-out: % inhibition female (individual replicates) R2): 83%; inhibition at 2 µM ([2]; Plasmodium falciparum, PfDGFA at 2µM, replicate R3, read-out: % inhibition female (individual replicates) R3): 66.2%; inhibition at 2 µM ([2]; Plasmodium falciparum, PfDGFA at 2µM, replicate R4, read-out: % inhibition female (individual replicates) R4): 52.3%; IC50 [2, 4]: 740 nM; HitlevelF ([2]; 2µM): 3
CC(=NNC(=S)NC(C)(C)C)c1ccccn1 [TCMDC-137783] | 0.9 | 0.1 | 0.11 | 101.1 | 99.9 | 98.6 | 104.2 | 110 | 58.4 | 41.7 | 38.4 | 72.1 | 970 | 
Cc1ccccc1OCC(O)CNC1CCC(NCC(O)COc2ccccc2C)CC1 (centres unmarked) [TCMDC-125142] | 2.74 | 5.33 | 3.94 |  |  |  |  | 1940 |  |  |  |  | 1350 | Average inhibition male (%) [1, 7]: 76.7%; % inhibition male (individual replicates) R1 ([1]; PfDGFA at 2µM, replicate R1): 73.4%; % inhibition male (individual replicates) R3 ([1]; PfDGFA at 2µM, replicate R3): 61.7%; % inhibition male (individual replicates) R4 ([1]; PfDGFA at 2µM, replicate R4): 90.9%; HitlevelM ([1]; 2µM): 4; Average inhibition female (%) [2, 7]: 34.1%; % inhibition female (individual replicates) R1 ([2]; PfDGFA at 2µM, replicate R1): 36.4%; % inhibition female (individual replicates) R3 ([2]; PfDGFA at 2µM, replicate R3): 18.2%; % inhibition female (individual replicates) R4 ([2]; PfDGFA at 2µM, replicate R4): 27.5%; HitlevelF ([2]; 2µM): 1
CCCCCCC(N)c1ccc(OCCCOc2ccc(C(N)CCCCCC)cc2)cc1.Cl (centres unmarked) [TCMDC-137621] | 3.34 | 3.56 | 2.08 | 94.3 | 98.4 | 82.0 | 99.6 | 1070 | 47.1 | 37.5 | 53.9 | 41.4 | 1710 | 
c1ccc2[nH]c(CN(Cc3nc4ccccc4[nH]3)Cc3nc4ccccc4[nH]3)nc2c1 [TC03] |  |  |  |  |  |  |  |  |  |  |  |  |  | Cytotox ratio Pf Male [1]: 14.8; IC50 [1, 8]: 6750 nM; DGFA Tox50 HepG2 (HepG2 cells; HepG2 value reported with the DGFA screen): 100 µM; Mean TOX (HepG2 cells): 100.00 µM; Cytotox ratio Pf Female [2]: 10.0
COc1ccc2c(OC)c(CNCCCCCCNCc3ccc4cc(OC)ccc4c3OC)ccc2c1.CS(=O)(=O)O [TCMDC-137953] | 2 | 3.73 | 2.26 |  |  |  |  | 1870 |  |  |  |  | 1650 | Average inhibition male (%) [1, 7]: 70.9%; % inhibition male (individual replicates) R1 ([1]; PfDGFA at 2µM, replicate R1): 72.9%; % inhibition male (individual replicates) R3 ([1]; PfDGFA at 2µM, replicate R3): 42.7%; % inhibition male (individual replicates) R4 ([1]; PfDGFA at 2µM, replicate R4): 88.9%; HitlevelM ([1]; 2µM): 3; Average inhibition female (%) [2, 7]: 35.6%; % inhibition female (individual replicates) R1 ([2]; PfDGFA at 2µM, replicate R1): 27.7%; % inhibition female (individual replicates) R3 ([2]; PfDGFA at 2µM, replicate R3): 6.7%; % inhibition female (individual replicates) R4 ([2]; PfDGFA at 2µM, replicate R4): 49.3%; HitlevelF ([2]; 2µM): 1
CCOc1cc(OCC)c2ccccc2c1CNCCCCCCNCc1c(OCC)cc(OCC)c2ccccc12.CS(=O)(=O)O [TCMDC-137982] | 2.69 | 2.84 | 1.67 | 97.2 | 95.9 | 96.2 | 100.2 | 1060 | 82.9 | 76.1 | 92.8 | 83.8 | 1700 | 
N=C(N)NCCN(Cc1ccccc1)c1ccc(Cl)cc1 [TC09] |  |  |  |  |  |  |  |  |  |  |  |  |  | Cytotox ratio Pf Male [1]: 72.7; IC50 [1, 8]: 670 nM; Mean TOX (HepG2 cells): 48.68 µM; Cytotox ratio Pf Female [2]: 7.5; IC50 ([2]; this study, read-out: Pf DGFA IC50 FEM): 6500 nM
Cl.NCC1(c2nc(-c3ccc(Cl)c(O)c3)c(-c3ccncc3)[nH]2)CCCCC1 [TCMDC-141154] | 11.58 | 9.89 | 23.04 |  |  |  |  |  |  |  |  |  |  | inhibition at 2 µM [1, 9]: 99.7%; inhibition at 2 µM [1, 10]: 95.4%; inhibition at 2 µM [1, 11]: 103%; inhibition at 2 µM [1, 12]: 95.7%; inhibition at 2 µM [1, 13]: 105%; IC50 [1, 3]: 850 nM; inhibition at 2 µM [2, 14]: 94.3%; inhibition at 2 µM [2, 15]: 92.5%; inhibition at 2 µM [2, 16]: 91.3%; inhibition at 2 µM [2, 17]: 101%; inhibition at 2 µM [2, 18]: 92.3%; IC50 [2, 4]: 430 nM
Cl.Clc1ccc(OCCC2CCN(CCCCCCCN3CCC(CCOc4ccc(Cl)c(Cl)c4)CC3)CC2)cc1Cl [TCMDC-138967] | 2.82 | 3.36 | 1.93 | 95.6 | 93.1 | 96.8 | 99.1 | 1190 | 87.8 | 88.3 | 97.6 | 78.8 | 1740 | 
C=CCN(C(=O)c1ccc(Cl)c([N+](=O)[O-])c1)c1nc(-c2ccccc2)cs1 [TCMDC-124436] | 69.29 | 27.57 | 88.48 |  |  |  |  |  |  |  |  |  |  | inhibition at 2 µM [1, 9]: 99.6%; inhibition at 2 µM [1, 10]: 99.4%; inhibition at 2 µM [1, 11]: 98.5%; inhibition at 2 µM [1, 12]: 102%; inhibition at 2 µM [1, 13]: 98.2%; IC50 [1, 3]: 400 nM; inhibition at 2 µM [2, 14]: 53%; inhibition at 2 µM [2, 15]: 34.2%; inhibition at 2 µM [2, 16]: 85.7%; inhibition at 2 µM [2, 17]: 53.1%; inhibition at 2 µM [2, 18]: 38.9%; IC50 [2, 4]: 310 nM
CN(C)CCCOc1ccc(CN2CCC(c3c[nH]c4ccc(NCC5CCCCC5)cc34)CC2)cc1.O=C(O)C(F)(F)F [TCMDC-140737] | 6.13 | 8.22 | 1.66 | 93.4 | 100.1 | 96.2 | 94.6 | 1340 | 62.2 | 56.9 | 56.2 | 81.1 | 4940 | 
